Compound | pKa (basic group) | pKa (acidic group)
O=[N+]([O-])c1ccc(O)c2ncccc12 | 2.88 | 
C=C(C)C(=O)OCCNC | 8.96 | 
Cc1ccccc1/C(=N\CCCN(C)C)c1ccccc1N | 9 | 
Cc1cnc2c([S-])ncnc2n1 | 7.02 | 
COC(=O)c1cc(Br)c(=O)n(N)c1 | 2.4 | 
O=C1Cc2c1cc([N+](=O)[O-])c(O)c2Br |  | 2.88
CC[NH+](CC)Cc1c(O)c(Cl)cc(Cl)c1Cl |  | 5.13
Nc1ccc2nc3ccccc3cc2c1 | 5.88 | 
CCOCCn1c(CN2CC[NH+](CCCCn3cc(C(=O)O)cn3)CC2)[nH+]c2ccccc21 |  | 3.8
Cc1nn(C)c(O)c1Cc1ccccc1 |  | 10.9
O=C(O)/C(I)=C\c1ccccc1 |  | 2.24
CC[C@H]1CN2CC[C@@H]1C[C@H]2[C@H](O)c1ccnc2ccc(OC)cc12 | 8.67 | 
C(COCCc1nnn[nH]1)OCCc1nnn[n-]1 |  | 5.37
Oc1ccc(Cl)cc1C[NH+]1CCCC1 |  | 8.3
OC[C@@H]1O[C@H]([n+]2ccc(NO)nc2O)[C@@H](O)[C@H]1O |  | 2.26
CC[NH2+]CCC(=O)O |  | 3.61
CN(C)c1ccc(/C=C/c2cc(N)c3ccccc3n2)cc1 | 9.7 | 
CC(=O)CC(=O)O |  | 3.09
CC[NH+](CC)CCNc1nc(C)cc(N)n1 | 6.97 | 
CNc1cccc(C)c1 | 4.94 | 
C[C@@H]1C[C@H](OC(=O)c2ccccc2)CC(C)(C)N1 | 8.97 | 

Compound | pKa (basic group) | pKa (acidic group)
CN1CCC(NN)CC1 | 8.85 | 
Oc1c(I)cc(Cl)c2cccnc12 | 2.61 | 7.9
[NH3+]c1ccc(O[C@H]2O[C@@H](C(=O)O)[C@H](O)[C@@H](O)[C@@H]2O)cc1 |  | 3.1
Nc1ccc2c(c1)CCC2 | 5.35 | 
CC(c1ccccc1)N1CC(O[Si](C)(C)C)C1 (stereo not drawn) | 7.82 | 
CNC(=O)c1ccccc1O |  | 8.03
Cc1cc(-c2c(C)noc2O)on1 |  | 3.2
O=C(N/N=C/c1ccccc1[O-])c1ccncc1 |  | 11.3
Cc1cccc(S(N)(=O)=O)c1 |  | 9.51
NC1CCN(Cc2ccccc2)CC1 | 9.79 | 
O=c1[nH]c(=O)n(-c2ccccc2)[nH]1 | -4.1 | 4.9
Cc1ccccc1/C(=N\CCC[NH+](C)C)c1ccccc1Cl | 3.37 | 
NC(CO)CO | 8.63 | 
O=C([O-])/C=C/C(=O)CC(=O)CC(=O)[O-] |  | 8.4
OCc1nc2ncncc2[nH]1 | 2.62 | 8.79
O/N=C/C=C/c1ccccc1 |  | 10.6
C/C(=C\Cl)C(=O)O |  | 4.03
Cc1cc(O)nn1-c1ccccc1C(=O)N1CCCCC1 |  | 12.4
c1ccc(Oc2ccncc2)cc1 | 6.16 | 
CCS(=O)O |  | 2.27
NCC(=O)C[NH3+] | 6.89 | 

Compound | pKa (basic group) | pKa (acidic group)
NCc1ccc(Cl)c(N)c1 | 9.33 | 
CC(=O)N[C@H]1CC(=O)NC1=O |  | 8.85
O=C([O-])[C@@H]1CC[C@@H](C(=O)O)[Se]1 |  | 4.35
COc1ccc2nccc(C(O)C3CCCC[NH2+]3)c2c1 (stereo not drawn) | 4.34 | 
Cc1c(C(C)C)c(=O)n(-c2ccccc2)n1C | 2.4 | 
O=[N+]([O-])c1ccc(S(=O)O)cc1 |  | 1.86
CC1=C(C)/C(=C(\C)C(=O)O)CC1=O |  | 3.1
[NH3+]Cc1ccccn1 | 3.1 | 
O=C(O)CC1CCCCO1 (stereo not drawn) |  | 4.39
NNc1nncc2ccccc12 | 7.25 | 
CCCCCCCCCCCCCCN | 10.6 | 
O=C(O)[C@@H]1O[C@H](Oc2cccc3ccc[nH+]c23)[C@@H](O)[C@H](O)[C@H]1O |  | 3.01
CC1CCCNC1 (stereo not drawn) | 10.9 | 
CCCCCCCCN(CCO)CC(C)O (stereo not drawn) | 8.2 | 
C=CCN(C)C | 8.72 | 
CC(O)(c1ccccc1)C(C(=O)O)c1ccc(-c2ccccc2)cc1 (stereo not drawn) |  | 3.38
COc1ccc(CON)cc1 | 4.42 | 
Oc1cnoc1 |  | 7.75
CCCNC(C)C(=O)[O-] (stereo not drawn) | 10.2 | 
Nc1ccc2nc3ccc(N)cc3cc2c1 | 6.18 | 
Cc1cnoc1C | 0 | 

Compound | pKa (basic group) | pKa (acidic group)
O=c1cccc(O)cc1 |  | 5.64
CCOC(C)=N | 7.15 | 
CC(=O)CC(=O)c1ccccc1 |  | 8.69
Nc1ncnc2ccccc12 | 5.79 | 
Cn1cccc1C(=O)O |  | 4.51
CCN(CC)CC(=O)NC1c2ccccc2-c2ccccc21 | 7.98 | 
CC(=O)Oc1ccccc1C(=O)NCC(=O)O | 3.77 | 
CCS(=O)(=O)c1cc(OC)c(OC)c(C(=O)N[C@@H]2C[C@H]3CC[C@@H](C2)N3Cc2ccccc2)c1 | 8.9 | 
Nc1ccc(Cl)cc1[N+](=O)[O-] | -0.88 | 
CCCCc1ccccc1N | 4.26 | 
CNc1ccncn1 | 6.12 | 
CC1(C)CCCC(C)(C)N1 | 11.2 | 
[O-]c1ccccc1O |  | 11.6
Cn1cc([NH3+])cc1C(=O)O |  | 3.5
CC(=O)S |  | 3.71
CCC(C)N(C)c1ccccc1 (stereo not drawn) | 6.03 | 
O=C(Nc1ccncc1)c1ccccc1 | 5.32 | 
CCN(CC)CCCC(C)Nc1cc(C)nc2cc(Cl)ccc12 (stereo not drawn) | 10.2 | 
COc1cccc(OC)c1-c1nc2cnccc2[nH]1 | 6.34 | 10.9
Cc1cc(-c2ccccc2)n[n+](C)c1NCCN1CCOCC1 | 5.12 | 
O=N/C(=N/O)c1ccccc1 |  | 4.9

Reference: the pKa sets of Baltruschat and Czodrowski (2020)
